Measurements reported in US20230279024A1, “TRIAZINE COMPOUND AND COMPOSITION AND USE THEREOF” (BEIJING FINDCURE BIOSCIENCES, LTD., priority 2020, published 2023).

Legend:
AXL (h) kinase = AXL (h) kinase (Homo sapiens (Human), UniProt P30530); test: AXL (h) kinase activity test (EZ Reader mobility shift, FLPeptide30); type: biochemical; conditions: ATP 100 μM, AXL 1 nM
Description: The effect of the disclosed compounds as protein kinase inhibitors can be evaluated by the following experiments. The AXL (h) kinase activity of the compounds of the invention is tested by the following methods:
Reagents used in the experiment were AXL (Carna Bioscience, Cat No.: 08-107) and FLPeptide30 (PerkinElmer, Cat No.: 760430). The instruments involved were thermotank (Thermo Scientific), oscillator (QILINBEIER), EZ Reader (PerkinElmer, Cat No.: 122919), Non-contact stage pipetting system (Labcyte Inc., Cat No.: Echo 550), and non-contact nanoliter pipetting system (TECAN, Cat No.: EVO200).
Compound dilution: 1) Dissolve the compound in DMSO to the appropriate concentration; 2) Using TECAN EVO200 to dilute 10 concentrations in 384 microplates by three times gradient, the highest concentration is 1 mM; Echo550 was used to transfer 20 nL solution from the dilution plate to the test plate.
2) Add 15 μL solution 1 to each well of the test plate and incubate at room temperature for 30 minutes.
4) Add 5 μL solution 2 to start the reaction, and the final volume of each well is 20 μL.
5) Incubated at 25° C. for 90 min, and then added 75 μL stop solution (containing 0.5 M EDTA) to terminate the reaction.
6) The sample of each well was analyzed using EZ reader.
1) Based on the measured conversion rate (CR), the Remaining Activity (%) of the kinase was calculated according to the following function:
2) XLFit (Equation 201) software was used to fit IC50.
The above methods can be used to obtain the inhibitory IC50 and/or inhibitory constant Ki.

Ba/F3 AXL cells = test: Cell activity test: growth inhibition of Ba/F3 AXL cell line (CTG, 72 h); type: cell-based; conditions: Mus musculus, BaF3
Description: This experiment was conducted by detecting the inhibitory effect of compounds on the growth of Ba/F3 AXL cell line and Ba/F3 parental cell line. Cells in logarithmic growth stage were harvested and counted by platelet counter. Trypan blue rejection method was used to detect cell viability to ensure that the cell viability was above 90%. Adjust cell concentration; 90 μL cell suspension was added to 96-well plates, respectively; Cells in 96-well plates were cultured overnight at 37° C., 5% CO2 and 95% humidity. A 10-fold drug solution was prepared, with the highest concentration of 10 μM, and a total of 9 concentrations were diluted at 3.16 times the ratio. 10 μL drug solution was added to each well of the 96-well plate inoculated with cells, and three wells were set for each drug concentration; 96-well plates were incubated at 37° C., 5% CO2 and 95% humidity for 72 h, and CTG analysis was performed. Thaw the CTG reagent and balance the cell plates to room temperature for 30 minutes. Add the same volume of CTG solution to each well and vibrate on a fixed-rail shaker for 5 minutes to crack the cells. Place the cell plates at room temperature for 20 minutes to stabilize the cold light signal and read the cold light value. The GraphPad Prism 5.0 software was used to analyze the data, and the nonlinear S-curve regression was used to fit the data to obtain the dose-effect curve, and the IC50 value was calculated accordingly. Cell survival rate (%)=(Lum drug to be tested −Lum culture medium control)/(Lum cell control−Lum culture medium control)×100%.

CYP3A4 [1] = molecular target: T1, CYP3A4 (Homo sapiens (Human), UniProt P08684); conditions: hepatocytes, 2 days, 10 μM
Description: (§1) Cryopreservation of human primary hepatocytes was resuscitated in medium after take out from liquid nitrogen. […] Plates were incubated at 37° C. and 5% CO2 for 4-6 hours to confirm the formation of monolayer cells attached to the wall. Then the adherent culture medium was changed into hepatocyte culture medium and the culture was continued overnight.
After the test compounds and positive control inducers were co-incubated with cells, the incubation medium was removed. […] After the samples were extracted and processed, the generation of metabolites and the kinase activities of CYP1A2, 2B6 and 3A4 was quantitatively detected by LC-MS/MS, respectively.
The induction of test substance on each subenzyme was determined by detecting the generation rate of metabolites of CYP450 subenzyme substrates. The relative activity of each subenzyme was expressed as a percentage of the relative blank control, and the data were calculated according to the following formula:
Fold of induction=sample subenzyme activity/blank subenzyme activity
Relative positive control activity (PC %)=(Fold of induction of sample group—Fold of induction of blank group)/(Fold of induction of positive control group—Fold of induction of blank group)×100

CYP3A4 [2] = molecular target: T1, CYP3A4; conditions: hepatocytes, 2 days, 10 μM; remark: listed apart in the source
Description: as §1
After the test compound and positive control inducer were co-incubated with cells, the medium was removed and mercaptoethanol was added for cell lysis. Total RNA in cells was extracted with RNA extraction kit, and then transcribed into cDNA with cDNA reverse transcription kit. The 10 μL cDNA template was taken and analyzed on the fluorescence quantitative PCR instrument to obtain the Ct value.
The gene expression data were corrected by internal reference 18S, and the relative expression differences were determined by the method of ΔΔCt commonly used in fluorescence quantitative PCR.
The ΔCt, ΔΔCt and relative expression difference values of the target genes were calculated according to the following formula:
ΔCt=Ct value of target gene−Ct value of internal reference 18S
ΔΔCt=ΔCt of experimental group or positive control group−ΔCt of blank control group
Relative expression difference (fold of induction)=2−ΔΔ^Ct

CYP3A4/5 = test: Inhibition of human liver microsomes CYP450, 3A4/5; type: in vitro ADME; conditions: compounds 10 μM (positive control: concentration not given)

Sequence of AXL (h) kinase (P30530 473-894): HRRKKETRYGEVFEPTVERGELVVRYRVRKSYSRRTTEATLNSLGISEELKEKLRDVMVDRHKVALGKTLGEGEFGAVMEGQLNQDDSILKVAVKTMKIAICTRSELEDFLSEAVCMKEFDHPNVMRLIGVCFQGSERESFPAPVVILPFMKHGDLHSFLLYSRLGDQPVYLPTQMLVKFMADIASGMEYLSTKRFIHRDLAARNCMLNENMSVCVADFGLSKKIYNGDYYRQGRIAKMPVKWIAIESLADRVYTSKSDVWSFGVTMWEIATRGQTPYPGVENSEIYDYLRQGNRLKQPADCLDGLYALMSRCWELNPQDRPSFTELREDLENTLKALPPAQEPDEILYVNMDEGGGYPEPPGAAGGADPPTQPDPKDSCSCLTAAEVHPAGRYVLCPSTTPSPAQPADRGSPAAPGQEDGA

| IC50 (AXL (h) kinase) | IC50 (Ba/F3 AXL cells) | Enzymatic activity CYP3A4 Fold of induction (CYP3A4 [1]) | Gene expression CYP3A4 Fold of induction (CYP3A4 [2]) | Inhibitory rate (%) 3A4/5 (CYP3A4/5) | Compound |
| --- | --- | --- | --- | --- | --- |
| < 5 nM | < 5 nM | 0.836 | 1.58 | No inhibition | Nc1ncnn2c1c(-c1ccc(NC(=O)c3c4n(n(-c5ccccn5)c3=O)CCCC4)cc1F)cc2[C@H]1CC[C@H](O)CC1 [example 30, N-(4-(4-amino-7-((1r,4r)-4-hydroxycyclohexyl)pyrrolo[2,1-f][1,2,4]triazin-5-yl)-3-fluorophenyl)-2-oxo-1-(pyridin-2-yl)-1,2,4,5,6,7-hexahydropyrazolo[1,5-a]pyridine-3-carboxamide] |
| 5 to 50 nM | < 5 nM | 1.06 | 6.37 |  | CC(C)(O)C(=O)N1CCC(c2cc(-c3ccc(NC(=O)c4c5n(n(-c6ccccn6)c4=O)CCCC5)cc3F)c3c(N)ncnn23)CC1 [example 29, N-(4-(4-amino-7-(1-(2-hydroxy-2-methylpropanoyl)piperidin-4-yl)pyrrolo[2,1-f][1,2,4]triazin-5-yl)-3-fluorophenyl)-2-oxo-1-(pyridin-2-yl)-1,2,4,5,6,7-hexahydropyrazolo[1,5-a]pyridine-3-carboxamide] |
| 5 to 50 nM | 5 to 50 nM |  |  |  | Nc1ncnn2c(C3CCN(C(=O)C4CC4)CC3)cc(-c3ccc(NC(=O)c4c5n(n(-c6cccnc6)c4=O)CCCC5)cc3)c12 [example 49] |
| 5 to 50 nM | < 5 nM | 1.5 | 284 |  | CC(C)C(=O)N1CCC(c2cc(-c3ccc(NC(=O)c4c5n(n(-c6ccccc6)c4=O)CCCC5)cc3)c3c(N)ncnn23)CC1 [example 19, N-(4-(4-amino-7-(1-isobutyrylpiperidin-4-yl)pyrrolo[2,1-f][1,2,4]triazin-5-yl)phenyl)-2-oxo-1-phenyl-1,2,4,5,6,7-hexahydropyrazolo[1,5-a]pyridine-3-carboxamide] |
| 50 to 100 nM | 5 to 50 nM |  |  |  | CC(C)(O)C(=O)N1CCC(c2cc(-c3ccc(NC(=O)c4c5n(n(-c6ccccn6)c4=O)CCOC5)cc3F)c3c(N)ncnn23)CC1 [example 14, N-(4-(4-amino-7-(1-(2-hydroxy-2-methylpropanoyl)piperidin-4-yl)pyrrolo[2,1-f][1,2,4]triazin-5-yl)-3-fluorophenyl)-2-oxo-1-(pyridin-2-yl)-2,4,6,7-tetrahydro-1H-pyrazolo[5,1-c][1,4]oxazine-3-carboxamide] |
| 5 to 50 nM | 5 to 50 nM |  |  |  | CC(C)C(=O)N1CCC(c2cc(-c3ccc(NC(=O)c4c5n(n(-c6ccccn6)c4=O)CCCC5)cc3)c3c(N)ncnn23)CC1 [example 18, N-(4-(4-amino-7-(1-isobutyrylpiperidin-4-yl)pyrrolo[2,1-f][1,2,4]triazin-5-yl)phenyl)-2-oxo-1-(pyridin-2-yl)-1,2,4,5,6,7-hexahydropyrazolo[1,5-a]pyridine-3-carboxamide] |
| 5 to 50 nM | 5 to 50 nM |  |  |  | CC(C)C(=O)N1CCC(c2cc(-c3ccc(NC(=O)c4c5n(n(-c6ccccn6)c4=O)CCOC5)cc3F)c3c(N)ncnn23)CC1 [example 9, N-(4-(4-amino-7-(1-isobutyrylpiperidin-4-yl)pyrrolo[2,1-f][1,2,4]triazin-5-yl)-3-fluorophenyl)-2-oxo-1-(pyridin-2-yl)-2,4,6,7-tetrahydro-1H-pyrazolo[5,1-c][1,4]oxazine-3-carboxamide] |
|  | 5 to 50 nM |  |  | No inhibition | Nc1ncnn2c1c(-c1ccc(NC(=O)c3c4n(n(-c5ccccn5)c3=O)CCCC4)cc1)cc2[C@H]1CC[C@H](O)CC1 [example 20, N-(4-(4-amino-7-((1r,4r)-4-hydroxycyclohexyl)pyrrole[2,1-f][1,2,4]triazin-5-yl)phenyl)-2-oxo-1-(pyridin-2-yl)-1,2,4,5,6,7-hexahydropyrazol[1,5-a]pyridine-3-carboxamide] |
| 5 to 50 nM | < 5 nM |  |  | No inhibition | Nc1ncnn2c(C3CCN(C(=O)C4CC4)CC3)cc(-c3ccc(NC(=O)c4c5n(n(-c6ccccn6)c4=O)CCCC5)cc3)c12 [example 36, N-(4-(4-amino-7-(1-(cyclopropanecarbonyl)piperidin-4-yl)pyrrolo[2,1-f][1,2,4]triazin-5-yl)phenyl)-2-oxo-1-(pyridin-2-yl)-1,2,4,5,6,7-hexahydropyrazolo[1,5-a]pyridine-3-carboxamide] |
| 5 to 50 nM | < 5 nM |  |  |  | Cn1cc(-n2c(=O)c(C(=O)Nc3ccc(-c4cc(C5CCN(C(=O)C6CC6)CC5)n5ncnc(N)c45)cc3)c3n2CCCC3)cn1 [example 47] |
| 5 to 50 nM | < 5 nM |  |  |  | CC(C)(C)C(=O)N1CCC(c2cc(-c3ccc(NC(=O)c4c5n(n(-c6ccccn6)c4=O)CCOC5)cc3F)c3c(N)ncnn23)CC1 [example 37] |
| < 5 nM |  |  |  | No inhibition | Nc1ncnn2c1c(-c1ccc(NC(=O)c3c4n(n(-c5ccccc5)c3=O)CCOC4)cc1)cc2[C@H]1CC[C@H](O)CC1 [example 7, N-(4-(4-amino-7-((1r,4r)-4-hydroxycyclohexyl)pyrrolo[2,1-f][1,2,4]triazin-5-yl)phenyl)-2-oxo-1-phenyl-2,4,6,7-tetrahydro-1H-pyrazolo[5,1-c][1,4]oxazine-3-carboxamide] |
|  | < 5 nM | 0.779 | 24.7 | No inhibition | Nc1ncnn2c(C3CCN(C(=O)C4CC4)CC3)cc(-c3ccc(NC(=O)c4c5n(n(-c6ccccn6)c4=O)CCCC5)cc3F)c12 [example 10, N-(4-(4-amino-7-(1-(cyclopropanecarbonyl)piperidin-4-yl)pyrrolo[2,1-f][1,2,4]triazin-5-yl)-3-fluorophenyl)-2-oxo-1-(pyridin-2-yl)-1,2,4,5,6,7-hexahydropyrazolo[1,5-a]pyridine-3-carboxamide] |

| Compound | IC50 (AXL (h) kinase) | IC50 (Ba/F3 AXL cells) | Enzymatic activity CYP3A4 Fold of induction (CYP3A4 [1]) | Gene expression CYP3A4 Fold of induction (CYP3A4 [2]) | Inhibitory rate (%) 3A4/5 (CYP3A4/5) |
| --- | --- | --- | --- | --- | --- |
| CC(C)(F)C(=O)N1CCC(c2cc(-c3ccc(NC(=O)c4c5n(n(-c6ccccn6)c4=O)CCCC5)cc3)c3c(N)ncnn23)CC1 [example 25, N-(4-(4-amino-7-(1-(2-fluoro-2-methylpropanoyl)piperidin-4-yl)pyrrolo[2,1-f][1,2,4]triazin-5-yl)phenyl)-2-oxo-1-(pyridin-2-yl)-1,2,4,5,6,7-hexahydropyrazolo[1,5-a]pyridine-3-carboxamide] | 5 to 50 nM | < 5 nM |  |  |  |
